Read-outs that look alike come from different tables or passages of the source. Where no end group is shown, it is not given here. [ ]: non-standard residue; d: D form. The star is where a group is joined. Pmc = Cc1c(C)c(S(=O)(=O)*)c(C)c2c1OC(C)(C)CC2; Pen = CC(C)(S)[C@H](N)C(=O)O
How the values were obtained:
[1] = system: platelets; experiment: ADP-stimulated platelet aggregation in platelet-rich plasma (Table I); details: read-out: ADP-Stimulated Aggregation; ADP 10 μm, citrated platelet-rich plasma, 37° C.; * concentrations unconfirmed by amino acid composition analysis
Experimental: (§4) All aggregation studies were performed at 37° C. with a constantly stirred suspension of 3×10^8 platelets/ml. (Platelet count was determined with the aid of a hemacytometer.) Peptides and stimulants were added to these suspensions in 1% dilutions. The PRP and gel-filtered platelets were used within three hours from the time of blood collection.

[2] = system: platelets; experiment: Thrombin-stimulated platelet aggregation (Table I); details: read-out: Thrombin Stimulated Aggregation; thrombin 2 U/ml, gel-filtered platelets, 37° C.
Experimental: as §4

[3] = system: platelets; format: cell-based; details: for platelet aggregation potency relative to analogue 3: more potent than analogue 3; for increase in platelet aggregation potency relative to analogue 5: substitution of Leu at position 3
Experimental: (§1) Platelet aggregation was assessed using the method of Born, Nature 194:927-929 (1962), incorporated herein by reference. Briefly, the change in light transmission was measured through a stirred suspension of platelets in an aggregometer (Model 400 VS, Chrono-Log, Hayertown, Pa., USA). […] In studies using thrombin, the PRP was gel-filtered on Sepharose 2B in divalent ion-free Tyrode's solution containing 2% BSA. For all studies, the reference standard was platelet-poor plasma, which was obtained by centrifuging PRP at 1000×g for 5 min.
(§2) All aggregation studies were performed at 37° C. with a constantly stirred suspension of 3×10^8 platelets/mL. (Platelet count was determined with the aid of a hemacytometer.) Peptides and stimulants were added to these suspensions in 1% dilutions. The PRP and gel-filtered platelets were used within three hours from the time of blood collection.
The peptides described in this Example were synthesized according to the methods of Examples I and XI. Selectivity and potency were measured according to the methods of Examples II through XI. The peptide identification numbers used in this Example are consistent and relevant to this Example only. Some of the peptides are identified by other nomenclature elsewhere in this document.

[4] = system: platelets; experiment: Ex vivo inhibition of platelet aggregation (Table IV); format: in vivo, dog; details: for ex vivo inhibition of platelet aggregation (%): dose as listed per peptide in Table IV; for ex vivo platelet aggregation: doses of Table IV
Experimental: as §1, with “Platelet aggregation assays were performed following the methods of this Example or those of Example IX.G. Platelet” for “Platelet”, “(Nature” for “Nature”, “(1962)),” for “(1962),”
as §2, with “platelets/ml.” for “platelets/mL.”
Peptide anti-aggregation potencies were determined from dose-responsive curves for the inhibition of the maximum aggregation responses stimulated by physiologic doses of ADP (10 μm) and thrombin (2 U/ml).
Using the method described in Example V to measure ex vivo inhibition of platelet aggregation and the method described in Example VII to measure bleeding, four additional peptides were tested. These peptides included 11J, 11Q, 11K and 11V.

[5] = system: canine platelets; experiment: Canine platelet aggregation in vitro (ADP, arachidonic acid, collagen); format: cell-based, dog; details: stimulated by 10 μm ADP, […] arachidonic acid or 9.6 micrograms/ml collagen
[6] = molecular target: vitronectin receptor (Vn-R); experiment: VnR binding, ELISA or liposome attachment assay (Table I); design: species or system human; details: purified receptor
Experimental: Receptor and ligand purifications were performed according to the methods in this Example or those in Examaple XI.C. Receptors were purified according to the procedures of Pytela et al. (Methods Enzymol. 144:475 (1987)), incorporated herein by reference. […] Except where stated, all procedures were carried out at 4° C. The peptide column was washed with three volumes of Tris-buffered saline (TBS) containing 1 mM Ca^2+ and 25 mM OG and then with TBS containing 1 mM Ca^2+ and 25 mM octyl thioglucoside (OTG) at room temperature. […] Finally, Ca^2+ and Mg^+2 were added to eluted fractions to achieve final concentrations of 1 mM for both ions.
This assay was performed with minor modifications, according to the method of Pytela et al., Methods Enzymol. 144:475 (1987), incorporated herein by reference. Briefly, 1:4 mixture of labelled and unlabelled phosphatidylcholine (PC) liposomes was dissolved under nitrogen and diluted with an equal volume of purified receptor (purified as described in Example II) to achieve a fixed predetermined receptor-liposome concentration ratio. This mixture was then dialyzed overnight at 4° C. in phosphate buffered saline (PBS) containing 1 mM Ca^2+. An aliquot of the dialyzed sample was counted to assess radioactive content; the receptor-liposome mixture was then diluted to obtain a set radioactivity per unit volume.
Microtiter plates were coated with 10 μg of vitronectin. Non-specific sites were blocked for 2 hours at 37° C. in PBS containing 5 mg/ml BSA and 1 mM each of CaCl2 and MgCl2. The plates were then rinsed twice with PBS containing 1 mM Ca^+2 and Mg^+2, and 100 μl of the liposome-receptor mixture was added to each well. If necessary, peptides were added before this step in a 1-10% dilution. The plates were then incubated at 4° C. for 24 hours. The following day, the liquid in each well was aspirated and the plates were washed twice with PBS containing 1 mM Ca^+2 and Mg^+2. Finally, 100 μl of 2% SDS was added, the plates were shaken for 10-15 minutes, and the supernatants were collected, vortexed, and subjected to liquid scintillation counting. This procedure typically yielded ca. 1000 total and 100 non-specific counts per well.
In parallel studies with the platelet aggregation experiments (described in Example V), the apparent affinities of peptides for GP IIbIIa, fibronectin and vitronectin receptors were determined. Receptor-binding assays (as described in Examples III and IV) with purified receptors, were used to assess the abilities of the peptides to displace the binding of receptors to their receptor-specific ligands.
(§5) Those for VnR and GP IIb/IIIa were determined either by ELISA or liposome attachment assay (Example IV).

[7] = molecular target: T1, Fibronectin receptor (Fn-R) (Homo sapiens, UniProt P05556+P08648); experiment: FnR binding, competitive ELISA (Table I); details: purified receptor, * concentrations unconfirmed by amino acid composition analysis
T1 construct: Fibronectin receptor (Fn-R) was similarly purified from (100 mM) octyl glucoside-extracted human placenta; from tissue; host or cells: human placenta
T1 sequence (P08648 42-894 limits assumed): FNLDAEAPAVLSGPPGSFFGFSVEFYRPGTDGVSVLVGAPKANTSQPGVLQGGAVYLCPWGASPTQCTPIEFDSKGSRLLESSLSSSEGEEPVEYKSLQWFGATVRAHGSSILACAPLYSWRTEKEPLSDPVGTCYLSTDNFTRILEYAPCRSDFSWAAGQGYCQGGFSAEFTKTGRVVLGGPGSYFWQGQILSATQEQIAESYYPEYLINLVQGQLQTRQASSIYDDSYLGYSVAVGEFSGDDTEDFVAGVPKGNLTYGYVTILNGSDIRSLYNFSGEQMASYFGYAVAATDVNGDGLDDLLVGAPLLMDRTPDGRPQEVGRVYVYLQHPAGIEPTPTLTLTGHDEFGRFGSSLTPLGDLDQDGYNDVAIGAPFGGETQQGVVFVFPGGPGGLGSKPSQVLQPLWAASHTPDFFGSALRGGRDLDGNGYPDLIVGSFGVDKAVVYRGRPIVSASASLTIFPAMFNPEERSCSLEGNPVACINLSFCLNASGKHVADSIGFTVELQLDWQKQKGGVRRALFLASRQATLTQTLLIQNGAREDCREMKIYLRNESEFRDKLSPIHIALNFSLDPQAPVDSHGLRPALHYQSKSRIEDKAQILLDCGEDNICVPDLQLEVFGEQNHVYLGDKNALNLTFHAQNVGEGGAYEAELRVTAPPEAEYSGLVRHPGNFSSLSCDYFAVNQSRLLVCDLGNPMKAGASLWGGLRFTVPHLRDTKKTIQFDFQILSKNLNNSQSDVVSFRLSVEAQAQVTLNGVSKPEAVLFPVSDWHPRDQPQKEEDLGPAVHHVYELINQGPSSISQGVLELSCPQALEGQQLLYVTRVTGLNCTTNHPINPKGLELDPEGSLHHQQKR
T1 sequence (P08648 895-1049 partner limits assumed): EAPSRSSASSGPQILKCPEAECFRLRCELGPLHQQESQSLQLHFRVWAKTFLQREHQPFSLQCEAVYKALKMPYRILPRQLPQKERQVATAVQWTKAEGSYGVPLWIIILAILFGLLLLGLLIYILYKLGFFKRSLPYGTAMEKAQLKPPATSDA
T1 sequence (P05556 21-798): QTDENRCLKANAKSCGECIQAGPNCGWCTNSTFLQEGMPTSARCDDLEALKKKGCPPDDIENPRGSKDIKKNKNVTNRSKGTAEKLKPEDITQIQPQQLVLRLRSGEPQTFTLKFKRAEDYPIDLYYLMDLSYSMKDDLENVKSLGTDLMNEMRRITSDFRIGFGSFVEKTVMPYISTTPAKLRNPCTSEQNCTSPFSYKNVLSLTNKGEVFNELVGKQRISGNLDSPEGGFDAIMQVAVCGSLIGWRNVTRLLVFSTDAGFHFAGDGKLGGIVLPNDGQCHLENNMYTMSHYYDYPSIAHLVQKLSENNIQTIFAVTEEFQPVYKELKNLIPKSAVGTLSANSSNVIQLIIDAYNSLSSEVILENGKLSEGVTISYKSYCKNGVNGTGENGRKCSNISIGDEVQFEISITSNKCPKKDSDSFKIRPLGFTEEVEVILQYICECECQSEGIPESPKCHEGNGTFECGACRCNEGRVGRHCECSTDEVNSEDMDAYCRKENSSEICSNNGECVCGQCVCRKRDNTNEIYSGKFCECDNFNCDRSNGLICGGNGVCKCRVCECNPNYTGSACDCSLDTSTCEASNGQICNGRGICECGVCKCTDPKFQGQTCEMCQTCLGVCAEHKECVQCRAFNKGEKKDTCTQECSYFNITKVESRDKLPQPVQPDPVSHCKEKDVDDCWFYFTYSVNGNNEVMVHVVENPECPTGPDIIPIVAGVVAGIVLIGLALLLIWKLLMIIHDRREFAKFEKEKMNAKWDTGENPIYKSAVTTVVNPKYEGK
Experimental: Peptide binding to purified Fn-R was determined by using a competitive enzyme-linked immunosorbent assay (ELISA) in which fibronectin is immobilized and the binding of solubilized Fn-R and the binding of solubilized FN-R, in the presence of various concentrations of peptide analogue, is detected with a polyclonal anti-Fn-R antibody followed by a labelled anti-rabbit IgG conjugate.
Microtiter plates were coated with 110 μl of human fibronectin (at 2 μg/ml) in TBS. The plates were washed three times with TBS that contained 0.05% Tween 20. 50 microliters of receptor in TBS containing 20 mM octylglucoside and 2 mM NmCl2 was added to each well. 50 microliters of peptide in the same buffer was then added in 10-fold serial dilutions. The plates were incubated for three hours at room temperature, washed with 200 μl of the above TBS-Tween buffer. 100 μl of affinity-purified rabbit anti-human fibronectin receptor antibody was added to the wells and the plates were incubated for an additional two hours, washed twice with TBS-Tween and then distilled water. Affinity-purified goat anti-rabbit IgG conjugated to horseradish peroxidase (100 μl) was then added to each well. Bonding reactions were incubated for 16 hours at room temperature. The following day, the plates were washed twice with TBS-Tween and then distilled water. […]
IC50 s for FnR were determined by ELISA (Example III).

[8] = molecular target: GP IIb/IIIa (Homo sapiens, UniProt P05106+P08514); experiment: IIb/IIIa binding, ELISA or liposome attachment assay (Table I); design: Platelet glycoprotein IIb/IIIa was purified from outdated human platelets; from tissue; host or cells: outdated human platelets; details: purified receptor
GP IIb/IIIa, sequence (P08514 32-887 limits assumed): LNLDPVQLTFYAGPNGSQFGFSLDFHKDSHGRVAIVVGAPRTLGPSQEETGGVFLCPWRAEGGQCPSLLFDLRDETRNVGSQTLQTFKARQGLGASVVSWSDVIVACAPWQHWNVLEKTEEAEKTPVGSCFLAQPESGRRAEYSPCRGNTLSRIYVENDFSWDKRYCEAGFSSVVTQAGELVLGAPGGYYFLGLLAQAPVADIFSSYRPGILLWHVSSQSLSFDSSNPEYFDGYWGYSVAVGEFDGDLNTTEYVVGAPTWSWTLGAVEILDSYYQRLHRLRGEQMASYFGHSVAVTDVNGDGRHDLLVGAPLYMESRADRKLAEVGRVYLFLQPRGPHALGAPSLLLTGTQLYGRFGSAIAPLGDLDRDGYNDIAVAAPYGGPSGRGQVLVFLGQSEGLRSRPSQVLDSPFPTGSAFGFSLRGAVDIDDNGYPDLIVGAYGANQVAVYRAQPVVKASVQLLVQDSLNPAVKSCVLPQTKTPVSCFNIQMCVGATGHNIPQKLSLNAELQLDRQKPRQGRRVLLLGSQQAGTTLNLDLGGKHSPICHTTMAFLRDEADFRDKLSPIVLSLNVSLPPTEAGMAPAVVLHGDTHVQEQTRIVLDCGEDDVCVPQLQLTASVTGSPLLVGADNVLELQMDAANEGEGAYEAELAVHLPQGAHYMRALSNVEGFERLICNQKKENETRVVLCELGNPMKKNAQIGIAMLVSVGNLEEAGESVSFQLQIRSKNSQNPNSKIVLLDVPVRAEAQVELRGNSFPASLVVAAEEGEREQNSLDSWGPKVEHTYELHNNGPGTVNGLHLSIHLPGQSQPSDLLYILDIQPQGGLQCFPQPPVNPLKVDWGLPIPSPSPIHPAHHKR
GP IIb/IIIa, sequence (P08514 891-1039 partner limits assumed): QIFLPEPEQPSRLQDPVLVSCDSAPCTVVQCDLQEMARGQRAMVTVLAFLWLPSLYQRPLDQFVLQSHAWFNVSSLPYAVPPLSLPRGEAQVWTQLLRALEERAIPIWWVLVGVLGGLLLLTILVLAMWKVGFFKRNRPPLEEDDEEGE
GP IIb/IIIa, sequence (P05106 27-788): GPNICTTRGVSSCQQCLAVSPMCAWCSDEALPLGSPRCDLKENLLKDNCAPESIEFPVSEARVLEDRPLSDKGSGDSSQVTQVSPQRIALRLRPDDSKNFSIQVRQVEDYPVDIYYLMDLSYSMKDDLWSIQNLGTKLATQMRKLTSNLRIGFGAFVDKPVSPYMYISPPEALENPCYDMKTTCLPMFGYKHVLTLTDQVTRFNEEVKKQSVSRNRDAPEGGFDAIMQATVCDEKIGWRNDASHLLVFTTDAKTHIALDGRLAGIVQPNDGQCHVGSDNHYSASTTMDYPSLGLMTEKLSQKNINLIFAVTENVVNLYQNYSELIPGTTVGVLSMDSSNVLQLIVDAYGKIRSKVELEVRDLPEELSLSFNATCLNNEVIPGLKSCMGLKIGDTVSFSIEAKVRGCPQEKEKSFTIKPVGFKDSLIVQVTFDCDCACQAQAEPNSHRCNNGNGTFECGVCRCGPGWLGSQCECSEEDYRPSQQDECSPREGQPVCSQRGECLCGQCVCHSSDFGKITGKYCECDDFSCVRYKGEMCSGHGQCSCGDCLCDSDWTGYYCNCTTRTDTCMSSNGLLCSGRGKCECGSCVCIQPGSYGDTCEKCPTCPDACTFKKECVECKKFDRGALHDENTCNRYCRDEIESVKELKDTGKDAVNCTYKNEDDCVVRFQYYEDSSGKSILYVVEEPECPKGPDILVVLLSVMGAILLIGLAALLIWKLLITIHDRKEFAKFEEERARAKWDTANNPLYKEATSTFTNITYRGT
Experimental: Microtiter plates, 96 wells were coated (Type Nunc 1 Maxispor™) with 10 μg/ml purified fibrinogen (100 μl/well), and allowed to stand overnight at 4° C. The plates were washed three times with PBS Tween, 0.137M NaCl, 0.003M KCl, 0.008M Na2 HPO4, pH 7.4 at room temperature, 0.05% Tween-20 and blocked for 1 to 2 hours at room temperature with 200 μl/well TNCNT (which is 0.5% BSA, 20 mM Tris, pH 7.5 at room temperature, 120 mM NaCl, 0.2% NAN3, 2 mM CaCl2, 0.05% Tween 20, [Calbiochem RIA grade or better]) on a plate shaker. The plates were again washed three times with PBS/Tween and 50 μl of sample in TNCNT is added. The mixture was incubated for 15 minutes at room temperature on a plate shaker. The stock solution of purified GPIIb IIIa receptor from human platelets, (0.4-1.0 mg/ml GPIIb IIIa in 0.1% Triton X-100, 1 mM CaCl2, 20 mM Tris, 150 mM NaCl, 0.05% NaN3 in 0.3M N-acetyl glucosamine pH 7.5, stored at -70° C.), was reconstituted in TNCNT. Fifty (50) μl of this diluted GPIIb IIIa was then added to each well and incubated on a plate shaker at room temperature. […] The optical density at 492 nm vs 405 nm was recorded and IC50 values are determined.
as §5

[9] = system: platelets; experiment: Ex vivo platelet aggregation in the canine coronary thrombosis study; details: dog, 10 mg/kg injection
Experimental: For all ex vivo studies (see FIGS. 3A, 3B1, 3B2, 3B3, 3C1 and 3C2), control aggregation values were standardized to the percentages of light transmission observed in PRP and PPP samples (0% and 100%, respectively).
(§3) Animals were randomly assigned to two treatment groups: vehicle control (i.e., normal saline) or RGD peptides at various concentrations. Peptides were administered intra-atrially in both bolus and continuous injections. Each bolus injection consisted of 0.5 to 10 mg/kg and was administered 15 minutes before application of the current. A continuous infusion of the same peptide was then started immediately after completion of this initial injection. Animals received a 25 μg/kg/min to 200 μg/kg/min infusion. The anti-thrombotic effects of the peptides were monitored until 30 minutes after the occurrence of a persistent, occlusive thrombus or five hours after the initiation of electrical stimulation (whichever resulted first). If an occlusive thrombus had not developed within four hours after the initiation of current, the peptide infusion was stopped.
Platelet counts and ex vivo aggregation studies were performed one hour before and 1, 3, and 5 hours after application of anodal direct current.
Platelet aggregation was also determined ex vivo at one, three, and five hours after current application. For these studies, arachidonic acid, or collagen was again used to stimulate the platelets.

[10] = system: coronary thrombosis; experiment: Electrically induced canine coronary thrombosis, time to full occlusion; format: in vivo; details: dog
Experimental: Male mongrel dogs weighing 14 to 20 kg were selected based on proper aggregation of their platelets in response to arachidonic acid, collagen, and adenosine disphosphate (ADP) and based on similar weights and hemodynamic properties.
Before surgery, the animals were anesthetized with sodium pentobarbital (30 mg/kg, i.v.) and then intubated and ventilated on room air with positive pressure using a respirator (Harvard Apparatus, S. Natick, Mass.) at a volume of 30 ml/kg and a frequency of 12 breaths/min. Surgery, performed under aseptic conditions, was begun with the placement of cannulae into the left carotid artery and jugular vein for monitoring arterial blood pressure (Statham P23 pressure transducer, Gould, Inc., Cardiovascular Products, Oxnard, CA) and administering intravenous fluids.
The heart was exposed via a left thoracotomy through the 5th intercostal space. A 2-cm segment of the left circumflex coronary artery (LCCA) was isolated from surrounding tissue by blunt dissection. […] The intra-coronary electrode was constructed by attaching a 25-gauge hypodermic needle tip to a 30-gauge Teflon-insulated silver-coated copper wire. The mechanical occluder was constructed of stainless steel in a C shape with a Teflon screw (2 mm diameter) on top. It was adjusted to control vessel circumference and decrease the reactive hyperemic flow due to a 10-sec (full) occlusion by 50-70% without affecting basal coronary blood flow (FIG. 1C). A monopolar epicardial electrode was sutured to the surface of the ventricle in the region of LCCA distribution to monitor ischemic changes in the electrocardiogram (ECG). The left atrium was cannulated with polythylene tubing for administration of the peptide. Continuous recordings of blood pressure, limb lead II ECG, epicardial electrogram, and mean and phasic LCCA blood flow were obtained on a Model 7 polygraph (Grass Instrument Co., Quincy, Mass.).
One hour after the completion of surgery, a 100 micro-amp continuous anodal direct current delivered from a 9 volt nickel-cadmium battery was applied to the intimal surface of the LCCA. The anode of the battery was in series with a 250,000 ohm potentiometer and the intraluminal coronary artery electrode. The electric circuit was completed by placing the cathode in a subcutaneous site. Electrical stimulation was applied for three hours. At the conclusion of each experiment, the heart was fibrillated electrically and quickly removed, and the LCCA was dissected free as far as possible to verify the position of the implanted anodal electrode.
as §3
Coronary thrombosis was quantified as the time to full occlusion. The effects of the various peptide treatments on coronary thrombosis is illustrated in FIG. 4.

[11] = substitution of Arg at position 4

Work on “R[Pen]GRGDLRCA (cysteine pairing not given here)” yielded an IC50 [1] of 16 µM and an IC50 [2] of 13 µM.
R(D-Pen)GHRGDLRCR [analogue 4] was tested, and the “platelet aggregation potency relative to analogue 3” value [3] was 2 fold.
For Ac- CNPRGD(Y--OMe)AC--NH2 [Peptide 11K], the “platelet aggregation potency compared with analogue 32” value [3, 11] was “substantial decreases in platelet aggregation potency”, the “ex vivo inhibition of platelet aggregation (%)” value (from here on “ex vivo inhibition … (%)”) [4] was over 98% and the “ex vivo platelet aggregation” value [4] was “inhibited ex vivo platelet aggregation”.
Substance GRGDSP [reference compound] has an IC50 ([5]; read-out: concentration inhibiting all three canine platelet aggregation responses by 50%) of about 130 µM.
R(Pmc)GHRGDFRCR was tested, and the “increase in platelet aggregation potency relative to analogue 5” value [3] was about 5 fold and the IC50 [1] was 0.62 µM.
(Pmp)GHRGDLRCA was tested, and the “platelet aggregation potency relative to analogue 1” value ([3]; more potent than analogue 1) was 2 fold.
R(Pmc)GHRGDVRCR was tested, and the “increase in platelet aggregation potency relative to analogue 5” value [3] was 4 fold and the IC50 [1] was 0.69 µM.
In the case of “G[Pen]YRGDSPCA (cysteine pairing not given here)”, the IC50 [1] is reported as 47 µM.
Work on “G[Pen]GRGDSFCA (cysteine pairing not given here)” yielded an IC50 [1] of 115 µM.
In the case of “Ac- CNPRGD(Y--OMe)(Cit)C--NH2 [Peptide 11S]”, the “platelet aggregation potency compared with analogue 32” value [3, 11] is reported as “substantial decreases in platelet aggregation potency”.
Substance G(Pen)GRGDRPCA has an IC50 [1] of 22.3 µM.
“(t-but-am-Pmp)GHRGDLR(Pen)A [(t-but-am-P mp)GHRGDLR(Pen)A]” was tested, and the IC50 [1] was 89 µM.
Substance R(Pmc)GHRGDYRCR has an IC50 [1] of 1 µM.
Substance G(Pen)LRGDSRCA has an IC50 [1] of 41 µM and an IC50 [2] of 49 µM.
“R[Pen]GHRGDTRCR (cysteine pairing not given here)” was tested, and the IC50 [1] was 8.8 µM.
In the case of G(Pen)LRGDTPCA, the IC50 [1] is reported as 86 µM.
Substance YRGDSPDG has an IC50 [6] of 0.08 µM.
In the case of Ac- CNPKGD(Y--OMe)RC--NH2 [Peptide 11Q], the “ex vivo inhibition … (%)” value [4] is reported as over 95% and the “ex vivo platelet aggregation” value [4] is reported as “inhibited ex vivo platelet aggregation”.
Work on LRGDSPDG yielded an IC50 [6] of 0.2 µM.
R2(Pen)GRGDTPCA was tested, and the IC50 [1] was 8.2 µM and the IC50 [2] was 2.7 µM.
In the case of “Ac-CNPRGD(O-N-Butyl-Y)RC-NH2 [Ac CNPRGD(O-n-butyl-Tyr)RC--NH2]”, the IC50 [1] is reported as 0.1 µM.
With R(Pmc)GHRGDLRCR [analogue 5] the “platelet aggregation potency relative to analogue 3” value [3] was 3 fold.
With R(Tmc)GHRGDLRCR [analogue 7] the “platelet aggregation potency relative to analogue 3” value [3] was 2 fold.
With Ac- CNPRGD(Y--OMe)KC--NH2 [Peptide 11R] the “inhibitory activity retained relative to analogue 32” value [3, 11] was 20%.
With L(Pen)GHRGDLRCA the IC50 [1] was 10.5 µM.
FRGDSPDG gave an IC50 [7] of 2.4 µM and an IC50 [6] of 0.04 µM.
For Ac-CIPRGD(Y-OMe)RC-NH2 [Peptide 10R], the “increase in platelet aggregation potency relative to analogue 26” value [3] was 3-4 fold.
VRGDSPDG gave an IC50 [7] of 0.04 µM, an IC50 [6] of 0.24 µM and an IC50 [8] of 0.27 µM.
For R(Pen)GRGDWPCR [Peptide 4R], the IC50 [2] was 0.53 µM, the IC50 ([5]; read-out: IC50 against canine platelet aggregation) was 1.5 to 5 µM and the “ex vivo platelet aggregation by ADP, AA and collagen” value [9] was “unresponsive to all modes of stimulation at all time points”. For the same substance, the “coronary thrombosis, occlusion” value ([10]; 3 mg/kg) was “ineffective” and the “coronary thrombosis, time to full occlusion” value ([10]; 10 mg/kg) was “prevented occlusion throughout the duration of the study”.
Work on “R[Pen]GRGDSRCA (cysteine pairing not given here)” yielded an IC50 [1] of 12 µM and an IC50 [2] of 12 µM.
For “Ac- CNPRGD(Y--OMe)(dR)C--NH2 [Peptide 11L]”, the “platelet aggregation potency compared with analogue 32” value [3, 11] was “decrease in potency”.
With (Pmp)GRGDTPCA the IC50 [1] was 85 µM.
Work on G(Pen)GRGDTPCA yielded an IC50 [1] of 22.3 µM and an IC50 [2] of 28 µM.
R(Pen)GRGDTPCR showed an IC50 [1] of 6.3 µM and an IC50 [2] of 2 µM.
Work on R(orn)GHRGDLRDR yielded an IC50 [1] of over 200 µM.
G(Pen)LRGDSPCA showed an IC50 [1] of 415 µM and an IC50 [2] of 308 µM.
Substance G(Pen)GHRGDTRCA has an IC50 [1] of 11.3 µM and an IC50 [2] of 17 µM.
R(Pen)GRGDTPCK showed an IC50 [1] of 7.6 µM.
With “Ac- CNPRGD(Y--OMe)(Nle)C--NH2 [Peptide 11V]” the “ex vivo inhibition … (%)” value [4] was over 98% and the “ex vivo platelet aggregation” value [4] was “inhibited ex vivo platelet aggregation”.
For Ac- CNPRGD(Y--OMe)EC--NH2 [Peptide 11J], the “decrease in platelet aggregation potency relative to analogue 32” value [3, 11] was 15 fold, the “ex vivo inhibition … (%)” value [4] was over 98% and the “ex vivo platelet aggregation” value [4] was “inhibited ex vivo platelet aggregation”.
With R(Pen)GRGDTPCA the IC50 [1] was 7 µM and the IC50 [2] was 3.1 µM.
G(Pen)FRGDSFCA showed an IC50 [1] of over 200 µM.
